Consider 15 compounds from ChEMBL document CHEMBL4152201, “Novel sarsasapogenin-triazolyl hybrids as potential anti-Alzheimer's agents: Design, synthesis and biological evaluation” (Eur J Med Chem, 2018).

Assay [1] concerns the target T1, Amyloid-beta precursor protein (Homo sapiens, UniProt P05067). Nature of the assay: Inhibition of amyloid beta (1 to 42) (unknown origin) self-aggregation at 20 uM after 24 hrs by thioflavin-T fluorescence assay relative to control.
Assay [2] deals with SH-SY5Y. Nature of the assay: Neuroprotective activity against H2O2-induced oxidative stress in human SH-SY5Y cells assessed as cell viability at 25 uM pre-incubated for 1 hr followed by H2O2 addition and measured after 4 hrs by MTT assay relative to control. Format: functional. The conditions noted are these: read-out: Activity. On the technique in general: Formazan colour is commonly taken as a measure of viable cells.

Assay [3] deals with SH-SY5Y. Nature of the assay: Neuroprotective activity against H2O2-induced oxidative stress in human SH-SY5Y cells assessed as cell viability at 12.5 uM pre-incubated for 1 hr followed by H2O2 addition and measured after 4 hrs by MTT assay relative to control. Format: functional. The conditions noted are these: read-out: Activity.
Assay [4] concerns SH-SY5Y. Nature of the assay: Neuroprotective activity against H2O2-induced oxidative stress in human SH-SY5Y cells assessed as cell viability at 50 uM pre-incubated for 1 hr followed by H2O2 addition and measured after 4 hrs by MTT assay relative to control. Format: functional. The conditions noted are these: read-out: Activity.
The target in assay [5] is T1, Amyloid-beta precursor protein. In words: Inhibition of amyloid beta (1 to 42) (unknown origin) self-aggregation after 24 hrs by thioflavin-T fluorescence assay.

Some results are limits rather than exact numbers.

Broadly, the inhibition is the percentage by which the read-out fell short of the control. A high value points to a response far below the control. By IC50 is commonly meant the concentration that gives 50% inhibition. The low end stands for greater potency in that assay, the high end for weaker potency in that assay.

T1 sequence (P05067 whole entry): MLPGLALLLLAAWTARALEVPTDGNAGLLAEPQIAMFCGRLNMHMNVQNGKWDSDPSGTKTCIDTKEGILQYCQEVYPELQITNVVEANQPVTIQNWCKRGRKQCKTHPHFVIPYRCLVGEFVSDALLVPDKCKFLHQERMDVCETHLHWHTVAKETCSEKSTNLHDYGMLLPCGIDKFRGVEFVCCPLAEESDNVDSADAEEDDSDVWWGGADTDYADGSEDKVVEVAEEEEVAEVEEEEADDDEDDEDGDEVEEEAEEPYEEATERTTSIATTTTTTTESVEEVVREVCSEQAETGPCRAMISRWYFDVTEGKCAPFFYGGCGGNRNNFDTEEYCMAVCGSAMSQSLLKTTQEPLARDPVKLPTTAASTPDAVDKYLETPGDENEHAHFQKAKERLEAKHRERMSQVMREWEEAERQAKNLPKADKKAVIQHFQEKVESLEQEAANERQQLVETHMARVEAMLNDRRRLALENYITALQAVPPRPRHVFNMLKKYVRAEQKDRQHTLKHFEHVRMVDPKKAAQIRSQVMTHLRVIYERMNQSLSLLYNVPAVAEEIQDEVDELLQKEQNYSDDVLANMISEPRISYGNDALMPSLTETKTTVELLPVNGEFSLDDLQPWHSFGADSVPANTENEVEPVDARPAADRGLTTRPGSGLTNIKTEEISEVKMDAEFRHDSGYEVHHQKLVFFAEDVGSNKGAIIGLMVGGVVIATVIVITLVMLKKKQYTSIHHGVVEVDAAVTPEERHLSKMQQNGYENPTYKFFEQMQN

`COc1cc(Cn2cc(CNC(=O)[C@@H](C)CC[C@H]3O[C@H]4C[C@H]5[C@@H]6CC[C@@H]7C[C@@H](OCc8ccccc8)CC[C@]7(C)[C@H]6CC[C@]5(C)[C@H]4[C@@H]3C)nn2)cc(OC)c1` yielded an inhibition in assay [1] of 31.5%. As for `COc1cccc(Cn2cc(CNC(=O)[C@@H](C)CC[C@H]3O[C@H]4C[C@H]5[C@@H]6CC[C@@H]7C[C@@H](OCc8ccccc8)CC[C@]7(C)[C@H]6CC[C@]5(C)[C@H]4[C@@H]3C)nn2)c1`, the inhibition in assay [1] was 64.8%. Consider `CC(C)n1cc(CNC(=O)[C@@H](C)CC[C@H]2O[C@H]3C[C@H]4[C@@H]5CC[C@@H]6C[C@@H](OCc7ccccc7)CC[C@]6(C)[C@H]5CC[C@]4(C)[C@H]3[C@@H]2C)nn1`, for which the inhibition in assay [1] worked out at 52.6%. In turn, `C[C@H]1[C@H]2[C@H](C[C@H]3[C@@H]4CC[C@@H]5C[C@@H](OCc6ccccc6)CC[C@]5(C)[C@H]4CC[C@]23C)O[C@@H]1CC[C@H](C)C(=O)NCc1cn(Cc2ccncc2)nn1` displayed an inhibition in assay [1] of 20.8%.

Turning to `Cc1ccc(Cn2cc(CNC(=O)[C@@H](C)CC[C@H]3O[C@H]4C[C@H]5[C@@H]6CC[C@@H]7C[C@@H](OCc8ccccc8)CC[C@]7(C)[C@H]6CC[C@]5(C)[C@H]4[C@@H]3C)nn2)cc1`, the inhibition in assay [1] is 71.2%. On to `Cc1c(C)c2c(c(C)c1O)CCC(C)(C(=O)O)O2` (stereo unspecified) [TROLOX], for which the viability at 25 µM in assay [2] was 80.1%. The viability at 12.5 µM in assay [3] stood at 78.4%. For the same compound, the viability at 50 µM in assay [4] amounted to 78.4%.

`C[C@H]1[C@H]2[C@H](C[C@H]3[C@@H]4CC[C@@H]5C[C@@H](OCc6ccccc6)CC[C@]5(C)[C@H]4CC[C@]23C)O[C@@H]1CC[C@H](C)C(=O)NCc1cn(Cc2ccc(F)cc2)nn1`: in assay [1], the inhibition stood at 37.5%.

Compound `C[C@H]1[C@H]2[C@H](C[C@H]3[C@@H]4CC[C@@H]5C[C@@H](OCc6ccccc6)CC[C@]5(C)[C@H]4CC[C@]23C)O[C@@H]1CC[C@H](C)C(=O)NCc1cn(Cc2ccc(Cl)cc2)nn1` returned an inhibition in assay [1] of 70.5%. On to `C[C@H]1[C@H]2[C@H](C[C@H]3[C@@H]4CC[C@@H]5C[C@@H](OCc6ccccc6)CC[C@]5(C)[C@H]4CC[C@]23C)O[C@@H]1CC[C@H](C)C(=O)NCc1cn(Cc2ccc([N+](=O)[O-])cc2)nn1`, for which the inhibition in assay [1] is 70.7%. With `CCn1cc(CNC(=O)[C@@H](C)CC[C@H]2O[C@H]3C[C@H]4[C@@H]5CC[C@@H]6C[C@@H](OCc7ccccc7)CC[C@]6(C)[C@H]5CC[C@]4(C)[C@H]3[C@@H]2C)nn1`, in assay [1], the inhibition amounted to 11.8%. In the case of `C[C@H]1[C@H]2[C@H](C[C@H]3[C@@H]4CC[C@@H]5C[C@@H](OCc6ccccc6)CC[C@]5(C)[C@H]4CC[C@]23C)O[C@@H]1CC[C@H](C)C(=O)NCc1cn(Cc2ccccc2)nn1`, the inhibition in assay [1] was 64.2%. For the compound `C[C@H]1CC[C@@]2(OC1)O[C@H]1C[C@H]3[C@@H]4CC[C@@H]5C[C@@H](O)CC[C@]5(C)[C@H]4CC[C@]3(C)[C@H]1[C@@H]2C` [SARSASAPOGENIN], in assay [2], the viability at 25 µM was 71%. Also, the inhibition in assay [1] is 16.4%. The compound further displayed a half-inhibitory concentration (IC50) in assay [5] of more than 100 µM. In addition, in assay [3], the viability at 12.5 µM was found to be 68.2%. Further, the viability at 50 µM in assay [4] came out at 71.3%.

Regarding `C[C@H]1[C@H]2[C@H](C[C@H]3[C@@H]4CC[C@@H]5C[C@@H](OCc6ccccc6)CC[C@]5(C)[C@H]4CC[C@]23C)O[C@@H]1CC[C@H](C)C(=O)NCc1cn(Cc2ccc(Br)cc2)nn1`, the inhibition in assay [1] was 55.8%.

In turn, `CCCn1cc(CNC(=O)[C@@H](C)CC[C@H]2O[C@H]3C[C@H]4[C@@H]5CC[C@@H]6C[C@@H](OCc7ccccc7)CC[C@]6(C)[C@H]5CC[C@]4(C)[C@H]3[C@@H]2C)nn1` yielded an inhibition in assay [1] of 21.8%. In the case of `C[C@H]1[C@H]2[C@H](C[C@H]3[C@@H]4CC[C@@H]5C[C@@H](OCc6ccccc6)CC[C@]5(C)[C@H]4CC[C@]23C)O[C@@H]1CC[C@H](C)C(=O)NCc1cn(C)nn1`, the inhibition in assay [1] came to 8.34%.
